Measured values from patent publication US20090275085A1, “Enzyme for Obtaining Prebiotic Oligosaccharides” (CONSEJO SUPERIOR DE INVESTIGACIONES CIENTIFICAS, priority 2004, published 2009).

Experiments:
[1] = test system: purified X. dendrorhous enzyme (F-3); test: Glycosyltransferase activity: incubating maltose (240 g/l) with the purified X. dendrorhous enzyme (F-3), HPLC analysis; format: biochemical, Xanthophyllomyces dendrorhous; settings: for composition of the system: after 288 hours, maltose 240 g/l, 0.7 μg α-glucosidase, pH 5.4, 40° C., 200 rpm; for Composition of the reaction mixture: 240 g maltose/l, 0.2 M sodium acetate pH 5.4, 40° C., 150 rpm
Method: 0.7 μg of α-glucosidase from the pure solution of α-glucosidase corresponding to fraction 3 of TABLE 2 were added. […] Aliquots were extracted at different times and incubated for 5 minutes at 80° C. to inactivate the enzyme. They were diluted to 1:4 (v/v) with water, centrifuged for 5 minutes at 6000 rpm in an Eppendorf tube with a 0.45 μam filter and analyzed by HPLC liquid chromatography.

[2] = test system: X. dendrorhous extracellular fraction α-glucosidase; test: α-glucosidase activity of the X. dendrorhous extracellular (cell-free, F-0) fraction on different glucose polymers, glucose release by glucose oxidase-peroxidase; format: biochemical, Xanthophyllomyces dendrorhous; settings: for α-glucosidase activity detected on substrate: cell-free fraction (F-0); for Specific activity: X. dendrorhous extracellular fraction (F-0), release of glucose
Method: The production of α-glucosidase activity was analyzed in X. dendrorhous cultures grown in minimal medium for yeasts: 0.7% YNB (Yeast Nitrogen Base w/o Amino acids, DIFCO) (w/v), 2% carbon source. The cultures were carried out in glass flasks incubated at 24° C. and with constant stirring at 160 rpm.
(§1) The cell-free fraction was obtained by centrifugation (F-0) and α-glucosidase activity in this fraction was tested, assessing the release of glucose on different substrates. A […] test and standard methodology were used. The released glucose was quantified using the glucose oxidase-peroxidase coupled reaction: 0.4 ml of the solution to be assessed was mixed with 0.1 ml of A:B solution (20:1) (A: 0.85 U/ml glucose oxidase, 0.40 U/ml peroxidase in sodium phosphate buffer pH 5; B: 0.6% O-dianisidine). It was incubated for 30 minutes at 37° C. and spectrophotometrically quantified at 450 nm. A standard glucose curve (1 to 100 μg/ml) was used. The α-glucosidase activity unit is defined as the amount of enzyme required to release 20 μg/ml of glucose under the described conditions.

[3] = test system: X. dendrorhous α-glucosidase, enzyme purified to homogeneity (F-3); test: α-glucosidase (hydrolytic) activity of the X. dendrorhous F-3 fraction on different substrates; format: biochemical, Xanthophyllomyces dendrorhous; settings: for hydrolytic activity observed on substrate: enzyme purified to homogeneity (F-3); for Specific activity: F-3 fraction, purified protein, 1% concentration of substrate
Method: as §1
The hydrolytic activity of the enzyme purified to homogeneity (F-3) following the described process was tested on different substrates.

[4] = target: X. dendrorhous α-glucosidase (purified enzyme) (Phaffia rhodozyma, UniProt A0A0U2M4R6); test: Kinetic constants of X. dendrorhous α-glucosidase glycosylhydrolase activity; format: biochemical, Xanthophyllomyces dendrorhous; settings: 30 minutes, 100 ng of enzyme; starch supplied by Avebe, 8100 Da
Sequence of X. dendrorhous α-glucosidase (purified enzyme) (A0A0U2M4R6 entry or part of it): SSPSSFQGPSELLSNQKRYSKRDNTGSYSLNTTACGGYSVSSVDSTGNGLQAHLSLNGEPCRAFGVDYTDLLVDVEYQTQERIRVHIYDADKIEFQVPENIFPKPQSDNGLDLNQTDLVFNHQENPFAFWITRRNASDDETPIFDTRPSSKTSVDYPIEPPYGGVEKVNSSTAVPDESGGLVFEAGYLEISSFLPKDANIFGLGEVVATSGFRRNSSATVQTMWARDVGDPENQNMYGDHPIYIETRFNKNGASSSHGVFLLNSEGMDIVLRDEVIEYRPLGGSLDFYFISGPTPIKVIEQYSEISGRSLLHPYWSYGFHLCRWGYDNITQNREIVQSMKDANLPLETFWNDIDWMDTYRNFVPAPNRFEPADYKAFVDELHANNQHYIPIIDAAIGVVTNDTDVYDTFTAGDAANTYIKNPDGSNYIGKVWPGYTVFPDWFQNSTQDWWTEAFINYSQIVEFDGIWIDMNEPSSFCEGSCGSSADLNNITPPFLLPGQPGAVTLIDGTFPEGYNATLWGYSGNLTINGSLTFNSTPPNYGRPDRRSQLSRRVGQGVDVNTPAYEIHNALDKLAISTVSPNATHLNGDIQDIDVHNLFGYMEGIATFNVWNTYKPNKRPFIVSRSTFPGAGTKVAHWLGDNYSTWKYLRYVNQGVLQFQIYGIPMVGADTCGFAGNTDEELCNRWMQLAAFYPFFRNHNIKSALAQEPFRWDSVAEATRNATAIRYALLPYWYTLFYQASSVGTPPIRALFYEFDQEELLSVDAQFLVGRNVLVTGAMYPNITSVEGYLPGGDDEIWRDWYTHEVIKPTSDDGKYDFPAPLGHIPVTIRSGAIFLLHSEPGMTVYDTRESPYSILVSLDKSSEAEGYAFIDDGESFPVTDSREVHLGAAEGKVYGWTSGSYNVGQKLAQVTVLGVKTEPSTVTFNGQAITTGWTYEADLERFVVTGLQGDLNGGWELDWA
Method: The tests were carried out in 30 minutes and with 100 ng of enzyme for each reaction. The molecular weight of the starch, supplied by Avebe, is 8100 Da.

X. dendrorhous MYA-131 = test: Degradation of starch in the medium of an X. dendrorhous culture, quantified with Lugol's iodine; format: cell-based, Xanthophyllomyces dendrorhous
Method: X. dendrorhous MYA-131 grown in 100 ml of minimal medium with starch (MMS): 0.7% YNB (Yeast Nitrogen Base w/o Amino acids, DiFCO) (w/v), 2% starch (w/v), DIFCO) was cultured to produce α-glucosidase, and the culture continued for 150 hours. Cell growth was carried out and assessed as in the previous example. The stationary phase was reached after 75 hours of growth, at 3.4 ODU660. The cell-free fraction was obtained every 5-7 hours as in EXAMPLE 1.
To that end, 0.05 ml of the cell-free fraction was mixed with 0.05 ml of 50 mM sodium phosphate buffer, pH 5.5 0.1 ml of Lugol's iodine and 2.5 ml of water were added to 0.025 ml of this mixture. The polysaccharide was spectrophotometrically quantified at 595 nm using a standard starch curve (1-10 mg/ml). The 100% starch value was that assessed in the initial culture medium which was used to carry out the inoculum. By using this methodology, a decrease of the starch in the extracellular medium for the first 30 hours of culture was not observed. 10, 20, 40 and 60% reductions of the polysaccharide concentration were obtained at 50, 60, 70 and 80 hours of culture, respectively. The last value, 60%, remained constant during prolonged growths of up to 300 hours.

Compound	composition of the system [1]	Composition of the reaction mixture ([1]; reaction time 27 h)	Composition of the reaction mixture ([1]; reaction time 117 h)	Composition of the reaction mixture ([1]; reaction time 143 h)	Composition of the reaction mixture ([1]; reaction time 216 h)	Composition of the reaction mixture ([1]; reaction time 288 h)	hydrolytic activity observed on substrate [3]	Specific activity [2]	Specific activity [3]	Vmax [4]	other results
OC[C@H]1O[C@H](OC[C@H]2O[C@H](O[C@H]3[C@H](O)[C@@H](O)[C@@H](O[C@H]4[C@H](O)[C@@H](O)[C@@H](O)O[C@@H]4CO)O[C@@H]3CO)[C@H](O)[C@@H](O)[C@@H]2O)[C@H](O)[C@@H](O)[C@@H]1O [compound 7, α-D-Glu-(1→6)-α-D-Glu-(1→4)-α-D-Glu-(1→4)-α-D-Glu]	17.6 g/L	0 grams/liter	8.8 grams/liter	10.1 grams/liter	14.5 grams/liter	17.6 grams/liter					
OC[C@H]1O[C@H](OC[C@H]2OC(O)[C@H](O)[C@@H](O)[C@@H]2O)[C@H](O)[C@@H](O)[C@@H]1O (stereo partly shown) [isomaltose]	14.4 g/L	0 grams/liter	12.7 grams/liter	12.4 grams/liter	13.1 grams/liter	14.4 grams/liter	No activity				α-glucosidase activity detected on substrate [2]: not detected
OC[C@H]1O[C@H](OC[C@H]2O[C@H](OC[C@H]3OC(O)[C@H](O)[C@@H](O)[C@@H]3O)[C@H](O)[C@@H](O)[C@@H]2O)[C@H](O)[C@@H](O)[C@@H]1O (stereo partly shown) [isomaltotriose]							No activity				α-glucosidase activity detected on substrate [2]: not detected
OC[C@H]1O[C@H](O[C@H]2[C@H](O)[C@@H](O)[C@@H](O[C@H]3[C@H](O)[C@@H](O)[C@@H](O[C@H]4[C@H](O)[C@@H](O)[C@@H](O[C@H]5[C@H](O)[C@@H](O)[C@@H](O[C@H]6[C@H](O)[C@@H](O)[C@@H](O[C@H]7[C@H](O)[C@@H](O)C(O)O[C@@H]7CO)O[C@@H]6CO)O[C@@H]5CO)O[C@@H]4CO)O[C@@H]3CO)O[C@@H]2CO)[C@H](O)[C@@H](O)[C@@H]1O (stereo partly shown) [maltoheptose]								24 U/μg	997 U/μg	15 μg glucose min^−1	
OC[C@H]1O[C@H](O[C@H]2[C@H](O)[C@@H](O)[C@@H](O[C@H]3[C@H](O)[C@@H](O)[C@@H](O[C@H]4[C@H](O)[C@@H](O)C(O)O[C@@H]4CO)O[C@@H]3CO)O[C@@H]2CO)[C@H](O)[C@@H](O)[C@@H]1O (stereo partly shown) [maltotetraose]	15.4 g/L	0 grams/liter	11.0 grams/liter	12.4 grams/liter	15.1 grams/liter	15.4 grams/liter					
OC[C@H]1O[C@H](O[C@H]2[C@H](O)[C@@H](O)[C@@H](O[C@H]3[C@H](O)[C@@H](O)C(O)O[C@@H]3CO)O[C@@H]2CO)[C@H](O)[C@@H](O)[C@@H]1O (stereo partly shown) [maltotriose]	35.9 g/L	26.3 grams/liter	42.6 grams/liter	42.8 grams/liter	39.3 grams/liter	35.9 grams/liter		18 U/μg	647 U/μg	12 μg glucose min^−1	
OC[C@H]1O[C@H](OC[C@H]2O[C@H](O[C@H]3[C@H](O)[C@@H](O)C(O)O[C@@H]3CO)[C@H](O)[C@@H](O)[C@@H]2O)[C@H](O)[C@@H](O)[C@@H]1O (stereo partly shown) [panose]	21.2 g/L	5.7 grams/liter	14.7 grams/liter	16.1 grams/liter	18.9 grams/liter	21.2 grams/liter					
dextran							No activity				α-glucosidase activity detected on substrate [2]: not detected
glycogen									197 U/μg		
maltodextrin								21 U/μg	747 U/μg		
maltose	69.2 g/L	183.4 grams/liter	103.0 grams/liter	94.4 grams/liter	78.1 grams/liter	69.2 grams/liter		30 U/μg	1172 U/μg	23 μg glucose min^−1	
pullulan							No activity				
starch								23 U/μg		4.29 μg glucose min^−1	Kcat [4]: 1.43 s⁻¹; Km [4]: 880 µM; reduction of the polysaccharide concentration (X. dendrorhous MYA-131; 50 hours of culture): 10%; reduction of the polysaccharide concentration (X. dendrorhous MYA-131; 60 hours of culture): 20%; reduction of the polysaccharide concentration (X. dendrorhous MYA-131; 70 hours of culture): 40%; reduction of the polysaccharide concentration (X. dendrorhous MYA-131; 80 hours of culture, remained constant up to 300 hours): 60%; decrease of the starch in the extracellular medium (X. dendrorhous MYA-131; first 30 hours of culture): not observed
